# What was measured:
# Format in all cases: biochemical
# EGFR = biological target: T1, EGFR (Homo sapiens, UniProt P00533); assay: Kinase inhibition assay (33P transfer), EGFR; conditions: Table 2, kinase inhibition class; read-out: EGFR-1
# T1 construct: Kinases are expressed as either kinase domains or full length constructs; made in house
# How it was run: (§1)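 Steps: coat wells with poly(Glu,Tyr) 4:1 or poly(Arg,Ser) 3:1; add purified kinase, [33P]ATP and inhibitor; incubate; wash with 0.5% phosphoric acid; add liquid scintillant; count. IC50 corresponds to half-maximal reduction of bound 33P.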
# c-Met = biological target: T2, c-Met (Homo sapiens, UniProt P08581); assay: Kinase inhibition assay (33P transfer), c-Met; conditions: Table 2, kinase inhibition class; read-out: Met-1
# T2 construct: Kinases are expressed as either kinase domains or full length constructs; made in house
# How it was run: as §1
# Lck = biological target: T3, Lck (Homo sapiens, UniProt P06239); assay: Kinase inhibition assay (33P transfer), Lck; conditions: Table 3; read-out: Lck-1
# T3 construct: Kinases are expressed as either kinase domains or full length constructs; made in house
# How it was run: (§2)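 Each kinase, expressed as a GST- or polyHis-tagged domain or full-length protein, phosphorylated plate-attached poly(Glu,Tyr) 4:1 or poly(Arg,Ser) 3:1 using 33P-ATP. Bound radioactivity was measured by scintillation after a 0.5% phosphoric acid wash.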
# AKT = biological target: T4, AKT (Homo sapiens, UniProt Q9Y243); assay: Kinase inhibition assay (33P transfer), AKT; conditions: Table 2, kinase inhibition class; read-out: AKT3-1
# T4 construct: Kinases are expressed as either kinase domains or full length constructs; made in house
# How it was run: as §2
# Itk = biological target: T5, Itk (Homo sapiens, UniProt Q08881); assay: Kinase inhibition assay (33P transfer), Itk; conditions: Table 3; read-out: Itk-1
# T5 construct: Kinases are expressed as either kinase domains or full length constructs; made in house
# T5 sequence (Q08881 1-620): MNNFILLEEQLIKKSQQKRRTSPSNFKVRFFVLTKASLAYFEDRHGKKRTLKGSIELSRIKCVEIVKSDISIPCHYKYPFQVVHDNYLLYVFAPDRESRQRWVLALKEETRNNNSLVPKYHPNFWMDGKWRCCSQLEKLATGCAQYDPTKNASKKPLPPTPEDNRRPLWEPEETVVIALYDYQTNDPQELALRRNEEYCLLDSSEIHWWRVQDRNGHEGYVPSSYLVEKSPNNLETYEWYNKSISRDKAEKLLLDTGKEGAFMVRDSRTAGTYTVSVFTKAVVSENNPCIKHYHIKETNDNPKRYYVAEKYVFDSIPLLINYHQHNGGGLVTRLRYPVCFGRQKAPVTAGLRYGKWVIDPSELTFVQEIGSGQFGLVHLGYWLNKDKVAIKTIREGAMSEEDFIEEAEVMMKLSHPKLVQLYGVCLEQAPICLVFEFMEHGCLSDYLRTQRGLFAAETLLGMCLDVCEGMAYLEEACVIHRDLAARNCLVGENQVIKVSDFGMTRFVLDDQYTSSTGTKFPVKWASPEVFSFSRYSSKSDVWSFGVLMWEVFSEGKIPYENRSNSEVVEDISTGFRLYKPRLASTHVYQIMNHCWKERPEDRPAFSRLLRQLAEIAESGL
# How it was run: as §1
# Kdr = biological target: T6, Kdr (Homo sapiens, UniProt P35968); assay: Kinase inhibition assay (33P transfer), Kdr; conditions: Table 3; read-out: KDR-1
# T6 construct: Kinases are expressed as either kinase domains or full length constructs; made in house
# How it was run: as §2
# EPHB4 = biological target: T7, EPHB4 (Homo sapiens, UniProt P54760); assay: Kinase inhibition assay (33P transfer), EPHB4; conditions: read-out: EPHB4-1
# T7 construct: Kinases are expressed as either kinase domains or full length constructs; made in house
# T7 sequence (P54760 16-987): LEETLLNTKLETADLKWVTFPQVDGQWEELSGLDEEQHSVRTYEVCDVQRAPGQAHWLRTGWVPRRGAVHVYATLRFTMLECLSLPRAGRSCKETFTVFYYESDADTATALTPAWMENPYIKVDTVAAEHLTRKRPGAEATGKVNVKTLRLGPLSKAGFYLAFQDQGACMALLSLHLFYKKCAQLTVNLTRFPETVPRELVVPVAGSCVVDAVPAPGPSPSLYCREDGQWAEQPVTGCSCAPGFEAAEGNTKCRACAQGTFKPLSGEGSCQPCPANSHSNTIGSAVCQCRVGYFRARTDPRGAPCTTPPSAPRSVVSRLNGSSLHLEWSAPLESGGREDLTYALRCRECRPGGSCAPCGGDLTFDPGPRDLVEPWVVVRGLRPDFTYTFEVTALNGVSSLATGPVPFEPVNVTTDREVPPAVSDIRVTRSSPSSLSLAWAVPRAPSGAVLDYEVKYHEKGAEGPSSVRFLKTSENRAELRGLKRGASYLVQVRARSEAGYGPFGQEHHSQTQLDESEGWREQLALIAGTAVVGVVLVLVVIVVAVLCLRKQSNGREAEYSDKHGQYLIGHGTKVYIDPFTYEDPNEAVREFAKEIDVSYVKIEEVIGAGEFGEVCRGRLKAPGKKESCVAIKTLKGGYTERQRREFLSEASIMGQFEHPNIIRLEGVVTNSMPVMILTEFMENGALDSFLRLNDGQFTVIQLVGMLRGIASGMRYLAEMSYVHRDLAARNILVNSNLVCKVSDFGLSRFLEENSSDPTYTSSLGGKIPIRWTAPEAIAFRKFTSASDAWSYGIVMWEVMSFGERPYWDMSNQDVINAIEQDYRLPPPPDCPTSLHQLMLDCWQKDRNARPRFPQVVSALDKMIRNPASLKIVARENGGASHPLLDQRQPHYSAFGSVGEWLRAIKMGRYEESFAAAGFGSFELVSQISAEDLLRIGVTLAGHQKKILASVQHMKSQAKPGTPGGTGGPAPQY
# IGFR-1 = biological target: T8, IGFR-1 (Homo sapiens, UniProt P08069); assay: Kinase inhibition assay (33P transfer), IGFR-1; conditions: Table 2, kinase inhibition class
# T8 construct: Kinases are expressed as either kinase domains or full length constructs; made in house
# Zap-70 = biological target: T9, Zap-70 (Homo sapiens, UniProt P43403); assay: Kinase inhibition assay (33P transfer), Zap-70; conditions: Table 3; read-out: Zap-1
# T9 construct: Kinases are expressed as either kinase domains or full length constructs; made in house
# T9 sequence (P43403 1-619): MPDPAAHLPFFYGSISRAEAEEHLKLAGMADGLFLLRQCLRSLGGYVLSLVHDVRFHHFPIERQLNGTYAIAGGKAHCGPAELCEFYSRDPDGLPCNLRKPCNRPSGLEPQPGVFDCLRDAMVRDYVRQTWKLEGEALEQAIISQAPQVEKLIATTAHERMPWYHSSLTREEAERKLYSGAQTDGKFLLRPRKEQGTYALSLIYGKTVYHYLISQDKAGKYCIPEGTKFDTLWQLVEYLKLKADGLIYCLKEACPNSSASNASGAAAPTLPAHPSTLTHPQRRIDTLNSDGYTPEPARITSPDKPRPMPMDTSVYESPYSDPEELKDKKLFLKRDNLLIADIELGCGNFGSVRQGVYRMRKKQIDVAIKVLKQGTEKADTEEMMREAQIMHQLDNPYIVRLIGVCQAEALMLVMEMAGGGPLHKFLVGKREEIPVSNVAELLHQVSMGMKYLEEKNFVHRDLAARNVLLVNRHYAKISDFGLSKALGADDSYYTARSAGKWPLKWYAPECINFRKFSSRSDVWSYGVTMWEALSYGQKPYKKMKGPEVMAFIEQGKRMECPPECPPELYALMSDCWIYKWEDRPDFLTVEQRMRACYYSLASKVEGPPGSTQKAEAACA
# How it was run: as §2
# T8 sequence (P08069 31-1367): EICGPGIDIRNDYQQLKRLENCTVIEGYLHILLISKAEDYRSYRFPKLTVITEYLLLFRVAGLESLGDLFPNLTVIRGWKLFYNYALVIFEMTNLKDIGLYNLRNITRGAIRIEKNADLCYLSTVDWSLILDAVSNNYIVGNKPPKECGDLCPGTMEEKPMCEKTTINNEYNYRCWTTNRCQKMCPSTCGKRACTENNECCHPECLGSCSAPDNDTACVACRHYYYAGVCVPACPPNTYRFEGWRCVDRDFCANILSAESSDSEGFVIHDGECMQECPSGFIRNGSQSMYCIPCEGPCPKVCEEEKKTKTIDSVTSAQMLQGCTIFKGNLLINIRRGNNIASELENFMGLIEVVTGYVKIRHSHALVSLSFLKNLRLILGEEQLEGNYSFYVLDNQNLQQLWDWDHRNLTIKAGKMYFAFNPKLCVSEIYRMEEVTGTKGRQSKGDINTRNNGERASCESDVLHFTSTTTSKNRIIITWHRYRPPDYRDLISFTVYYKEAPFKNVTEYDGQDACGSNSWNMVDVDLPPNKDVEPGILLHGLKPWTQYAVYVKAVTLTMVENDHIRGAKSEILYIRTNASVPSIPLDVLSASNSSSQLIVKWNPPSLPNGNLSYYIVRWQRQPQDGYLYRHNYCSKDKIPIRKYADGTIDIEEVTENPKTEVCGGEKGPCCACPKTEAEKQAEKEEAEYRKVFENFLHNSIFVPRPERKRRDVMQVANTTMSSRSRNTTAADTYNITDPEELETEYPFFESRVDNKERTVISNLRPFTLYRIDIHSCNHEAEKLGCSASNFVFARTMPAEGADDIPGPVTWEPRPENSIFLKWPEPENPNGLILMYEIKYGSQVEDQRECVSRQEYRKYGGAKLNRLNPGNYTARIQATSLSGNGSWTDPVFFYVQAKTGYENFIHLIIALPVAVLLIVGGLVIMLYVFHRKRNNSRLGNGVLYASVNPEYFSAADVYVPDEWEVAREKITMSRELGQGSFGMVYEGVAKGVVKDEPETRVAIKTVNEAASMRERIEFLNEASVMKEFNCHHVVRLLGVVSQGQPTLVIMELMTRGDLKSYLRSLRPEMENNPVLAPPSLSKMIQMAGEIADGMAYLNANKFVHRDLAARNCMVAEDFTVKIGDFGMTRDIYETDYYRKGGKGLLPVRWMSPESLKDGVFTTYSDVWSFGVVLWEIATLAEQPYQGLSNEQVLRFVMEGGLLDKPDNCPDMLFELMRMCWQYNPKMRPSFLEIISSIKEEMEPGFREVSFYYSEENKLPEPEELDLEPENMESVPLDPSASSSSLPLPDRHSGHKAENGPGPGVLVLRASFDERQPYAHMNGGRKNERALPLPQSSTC
# T4 sequence (Q9Y243 whole entry, the tested form may be a part): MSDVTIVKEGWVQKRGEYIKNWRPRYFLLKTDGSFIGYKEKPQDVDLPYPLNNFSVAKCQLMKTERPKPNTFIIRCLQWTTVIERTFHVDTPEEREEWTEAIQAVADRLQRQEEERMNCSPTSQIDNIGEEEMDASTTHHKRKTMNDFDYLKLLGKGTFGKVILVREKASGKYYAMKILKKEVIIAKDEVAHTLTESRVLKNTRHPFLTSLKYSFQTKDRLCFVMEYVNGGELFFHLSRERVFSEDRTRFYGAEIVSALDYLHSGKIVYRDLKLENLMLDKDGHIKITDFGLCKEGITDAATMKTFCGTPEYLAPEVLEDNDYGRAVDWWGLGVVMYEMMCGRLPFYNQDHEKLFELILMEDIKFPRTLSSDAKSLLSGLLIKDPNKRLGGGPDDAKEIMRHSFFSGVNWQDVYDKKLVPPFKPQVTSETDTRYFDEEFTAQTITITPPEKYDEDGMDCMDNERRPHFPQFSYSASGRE
# T2 sequence (P08581 25-1390): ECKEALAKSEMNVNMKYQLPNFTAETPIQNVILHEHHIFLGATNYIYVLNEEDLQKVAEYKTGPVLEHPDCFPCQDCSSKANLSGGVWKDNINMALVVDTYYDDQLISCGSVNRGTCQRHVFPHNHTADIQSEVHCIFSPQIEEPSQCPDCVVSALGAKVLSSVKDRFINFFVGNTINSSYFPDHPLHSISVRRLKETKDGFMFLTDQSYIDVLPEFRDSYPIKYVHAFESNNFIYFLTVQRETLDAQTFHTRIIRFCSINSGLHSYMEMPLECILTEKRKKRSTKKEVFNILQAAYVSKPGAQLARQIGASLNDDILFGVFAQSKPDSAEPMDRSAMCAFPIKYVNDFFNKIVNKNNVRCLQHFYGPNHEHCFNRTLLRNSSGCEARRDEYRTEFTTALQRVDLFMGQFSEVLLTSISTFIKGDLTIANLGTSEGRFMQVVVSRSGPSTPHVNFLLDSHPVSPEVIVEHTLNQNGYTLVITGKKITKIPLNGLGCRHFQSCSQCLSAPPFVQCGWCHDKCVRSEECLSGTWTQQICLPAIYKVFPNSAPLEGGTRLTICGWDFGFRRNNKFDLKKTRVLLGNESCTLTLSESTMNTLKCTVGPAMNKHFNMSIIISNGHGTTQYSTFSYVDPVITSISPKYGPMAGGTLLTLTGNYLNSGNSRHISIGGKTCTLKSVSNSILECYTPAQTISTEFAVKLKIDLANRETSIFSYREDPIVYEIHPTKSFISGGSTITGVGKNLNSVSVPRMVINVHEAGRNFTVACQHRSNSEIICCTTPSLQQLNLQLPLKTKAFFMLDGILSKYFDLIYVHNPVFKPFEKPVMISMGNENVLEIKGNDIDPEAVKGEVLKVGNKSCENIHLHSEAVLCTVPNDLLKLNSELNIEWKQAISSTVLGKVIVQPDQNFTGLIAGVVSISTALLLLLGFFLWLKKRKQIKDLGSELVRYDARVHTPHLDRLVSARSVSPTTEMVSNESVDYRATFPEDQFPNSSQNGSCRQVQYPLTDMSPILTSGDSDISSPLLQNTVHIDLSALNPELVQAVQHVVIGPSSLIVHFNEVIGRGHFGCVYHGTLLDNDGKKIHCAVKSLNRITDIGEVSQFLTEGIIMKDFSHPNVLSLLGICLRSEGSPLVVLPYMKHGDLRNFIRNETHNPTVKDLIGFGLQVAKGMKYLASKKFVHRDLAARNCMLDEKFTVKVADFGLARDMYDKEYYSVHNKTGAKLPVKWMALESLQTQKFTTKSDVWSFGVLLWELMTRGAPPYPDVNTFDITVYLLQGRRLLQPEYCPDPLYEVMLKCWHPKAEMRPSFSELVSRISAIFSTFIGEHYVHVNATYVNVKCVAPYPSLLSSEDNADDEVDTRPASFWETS
# T1 sequence (P00533 25-1210, species assumed): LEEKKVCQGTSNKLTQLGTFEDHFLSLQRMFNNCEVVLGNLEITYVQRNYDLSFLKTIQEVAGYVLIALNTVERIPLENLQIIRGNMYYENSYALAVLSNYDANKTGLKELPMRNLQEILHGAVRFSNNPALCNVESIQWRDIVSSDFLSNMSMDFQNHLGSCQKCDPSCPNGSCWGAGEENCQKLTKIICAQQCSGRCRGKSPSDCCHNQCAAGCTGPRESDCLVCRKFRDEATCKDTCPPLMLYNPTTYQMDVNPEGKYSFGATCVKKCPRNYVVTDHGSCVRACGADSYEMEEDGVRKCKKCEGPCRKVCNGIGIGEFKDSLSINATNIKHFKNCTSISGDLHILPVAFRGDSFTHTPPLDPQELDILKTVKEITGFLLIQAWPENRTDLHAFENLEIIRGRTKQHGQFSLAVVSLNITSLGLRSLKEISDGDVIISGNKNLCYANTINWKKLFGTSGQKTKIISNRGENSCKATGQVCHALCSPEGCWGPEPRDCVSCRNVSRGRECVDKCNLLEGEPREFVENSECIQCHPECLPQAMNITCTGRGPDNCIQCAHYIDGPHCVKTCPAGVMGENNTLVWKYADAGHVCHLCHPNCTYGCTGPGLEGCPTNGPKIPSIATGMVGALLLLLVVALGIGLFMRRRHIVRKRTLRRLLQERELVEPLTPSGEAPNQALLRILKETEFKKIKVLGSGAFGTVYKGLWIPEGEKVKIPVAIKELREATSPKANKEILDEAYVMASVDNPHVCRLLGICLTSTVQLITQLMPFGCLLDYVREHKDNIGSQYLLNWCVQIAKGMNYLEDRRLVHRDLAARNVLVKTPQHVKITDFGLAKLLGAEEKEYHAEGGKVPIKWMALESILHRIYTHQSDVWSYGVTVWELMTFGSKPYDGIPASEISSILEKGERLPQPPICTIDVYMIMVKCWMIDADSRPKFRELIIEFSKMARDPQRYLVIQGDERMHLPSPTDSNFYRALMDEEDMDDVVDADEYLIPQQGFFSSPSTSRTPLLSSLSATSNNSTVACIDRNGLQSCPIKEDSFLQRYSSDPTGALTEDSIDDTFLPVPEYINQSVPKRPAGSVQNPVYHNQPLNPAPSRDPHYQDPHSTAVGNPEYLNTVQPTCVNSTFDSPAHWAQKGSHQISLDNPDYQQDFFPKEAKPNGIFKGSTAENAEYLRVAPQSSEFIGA
# T3 sequence (P06239 whole entry, species assumed, the tested form may be a part): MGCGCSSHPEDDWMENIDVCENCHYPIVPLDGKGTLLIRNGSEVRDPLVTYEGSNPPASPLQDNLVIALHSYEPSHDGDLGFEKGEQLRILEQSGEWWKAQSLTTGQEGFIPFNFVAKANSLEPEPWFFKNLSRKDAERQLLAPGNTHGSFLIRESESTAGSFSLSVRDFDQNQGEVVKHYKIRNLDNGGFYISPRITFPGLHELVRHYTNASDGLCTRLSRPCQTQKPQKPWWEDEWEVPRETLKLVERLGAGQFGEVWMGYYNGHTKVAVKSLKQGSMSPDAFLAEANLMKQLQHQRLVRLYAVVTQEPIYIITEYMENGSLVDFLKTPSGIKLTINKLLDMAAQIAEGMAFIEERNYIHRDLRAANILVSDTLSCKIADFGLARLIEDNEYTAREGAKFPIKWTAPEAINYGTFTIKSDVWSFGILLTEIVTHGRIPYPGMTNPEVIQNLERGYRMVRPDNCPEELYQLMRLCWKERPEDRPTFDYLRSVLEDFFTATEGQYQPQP
IC50 (EGFR) [µM],IC50 (c-Met) [µM],IC50 (Lck) [µM],IC50 (AKT) [µM],IC50 (Itk) [µM],IC50 (Kdr) [µM],IC50 (EPHB4) [µM],IC50 (IGFR-1) [µM],IC50 (Zap-70) [µM],Structure (SMILES)
1.02 to 6.1,1.02 to 6.1,1.02 to 6.1,> 11.4,> 11.4,1.02 to 6.1,6.1 to 8.9,< 1.02,> 11.4,COc1cc(C)c(Nc2ncnc(Nc3cc(-c4ccco4)n[nH]3)n2)cc1OC [Compound 338]
> 12.7,> 12.7,> 12.7,> 12.7,> 12.7,> 12.7,> 12.7,> 12.7,> 12.7,COc1cc(Nc2ncnc(Nc3ccccn3)n2)cc(OC)c1OC [Compound 40]
> 9.6,> 9.6,0.854 to 5.12,> 9.6,> 9.6,0.854 to 5.12,> 9.6,> 9.6,> 9.6,COc1cc(Nc2ncnc(Nc3ccc(NC(=O)OC(C)(C)C)cc3)n2)cc(OC)c1OC [Compound 69]

# — patent US7074789B2, “Kinase inhibitors” (Amgen Inc., priority 1999, dated 2006)
